# Assay results: patent publication US20240181049A1, “HARNESSING THE POWER OF MICROBIOTA AND METABOLITES FOR THE TREATMENT OF CANCER” (UTI LIMITED PARTNERSHIP, priority 2019, published 2024)
# What was measured:
# [1] = tested on: T cells in the MLN; assay: Th1 activation in vivo after ovalbumin/CpG immunization; parameters: species or system GF mice; details: 300 mg/kg/BW i.p.; vs vehicle
# Description: FIG. 5A-5L: Inosine promotes Th1 activation and anti-tumor immunity. (a) Schematic overview of experimental setup to assess the effect of inosine on Th1 activation in vivo. (b, c) Representative dot plots and quantification (left and right panel respectively) of T-bet^+IFN-γ^+CD3ε^+ (b) CD8^+ or (c) CD4^+ T cells in the MLN. (d) Schematic overview of experimental setup to assess the effect of inosine on anti-tumor immunity. Upon palpable tumors, mice were treated with 100 μg anti-CTLA-4 i.p. (5 times every 72 hours) and in some groups 20 μg CpG i.p. (5 times every 72 hours). In addition, inosine (300 mg/KG/BW) or PBS was given daily orally (O), through gavage or systemically (S) through i.p. injection. (e) Tumor weight and quantification of IFN-γ^+ cells amongst (f) CD4^+ or (g) CD8^+ cells are shown. (h). Schematic overview to assess the requirement of A2AR signaling for inosine-induced anti-tumor immunity. […] (j) Tumor weight and quantification of IFN-γ^+ in (k) CD8^+ or (l) CD4^+ cells in the tumor are shown. […]
# To evaluate the effect of inosine on Th1 activation, mice received 30 μg CpG, […] EndoFit Ovalbumin (both Invivogen) and 2 μg OVA323-339 (Sigma) i.p. and 24 hours later mice received 300 mg/kg/BW inosine or PBS as a control through i.p. injection. T cell differentiation was assessed 48 hours later. […]
# [2] = biological target: A2AR (Homo sapiens, UniProt P29274); details: compared to adenosine; cited from earlier work
# [3] = tested on: MC38; assay: MC38 tumors in gnotobiotic Oligo-MM12 mice, inosine + anti-CTLA-4; assay type: in vivo
# Description: FIG. 35A-35H. Inosine and live B. pseudolongum improve anti-CTLA-4 therapy efficacy in moderately diverse and complex microbiomes. A) Schematic overview of experimental setup to assess the effect of inosine on anti-tumor immunity in gnotobiotic mice (Oligo-MM12) stably colonized with 12 bacterial species. Upon palpable tumors, Oligo-MM12 colonized mice were treated with 100 μg anti-CTLA-4 i.p. or Isotype antibody (5 times every 72 hours). In addition, inosine (300 mg/KG/BW) or PBS was given daily orally through gavage. (B) Pictures of tumors and (C) tumor weight are shown at day 20. scale bars: 1 cm. (D) Quantification of intratumoral IFN-γ+ cells amongst CD8+ or CD4+ T cells are shown. (E) Schematic overview of experimental setup to assess the effect of inosine and B. pseudolongum on anti-tumor immunity in SPF mice. Following MC38 injection some mice received antibiotics (ABX), specifically Ampicillin 1 mg/ml, Colistin 1 mg/ml and Streptomycin 5 mg/ml for 7 days in the drinking water. Upon palpable tumors, antibiotics were removed and 100 μg anti-CTLA-4 (5 times every 72 hours) started. Mice concomitantly received either PBS, inosine (300 mg/KG/BW daily), B. pseudolongum or heat inactivated (H.i.) B. pseudolongum orally through gavage (5 times every 72 hours). (F) Pictures of tumors and (G) tumor weight are shown at day 20. scale bars: 1 cm. (H) Quantification of intratumoral IFN-γ+ cells amongst CD8+ or CD4+ cells are shown. Data are mean+/−SEM and (A-H) n=7 mice/group. P<0.05; **, P<0.01, ***, P<0.001.
# Chain of A2AR (P29274 whole entry): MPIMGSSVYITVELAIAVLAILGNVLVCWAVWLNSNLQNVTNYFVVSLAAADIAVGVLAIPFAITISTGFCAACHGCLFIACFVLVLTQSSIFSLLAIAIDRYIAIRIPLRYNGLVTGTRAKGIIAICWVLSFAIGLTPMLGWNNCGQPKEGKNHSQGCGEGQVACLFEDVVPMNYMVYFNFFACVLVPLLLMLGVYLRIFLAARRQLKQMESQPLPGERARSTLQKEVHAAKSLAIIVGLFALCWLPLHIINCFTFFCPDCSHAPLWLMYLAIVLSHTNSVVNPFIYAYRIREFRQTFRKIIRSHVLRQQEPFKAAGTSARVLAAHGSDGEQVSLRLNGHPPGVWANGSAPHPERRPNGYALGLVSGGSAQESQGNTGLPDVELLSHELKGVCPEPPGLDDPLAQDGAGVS
smiles,measurement,setting,value
OC[C@H]1O[C@@H](n2cnc3c(O)ncnc32)[C@H](O)[C@@H]1O [inosine],"proportions of T-bet+, IFN-γ+ CD8+ and CD4+ T cells in the MLN",[1],increased
same,"A2AR-dependent signaling bias, preference for ERK1/2 phosphorylation",[2],3.3 fold
same,intra-tumoral IFN-γ+CD8+ and IFN-γ+CD4+ T cells,[3],increased
same,tumor size,[3],reduced tumor size
same,anti-tumor effects of anti-CTLA-4,[3]; inosine 300 mg/KG/BW daily orally,able to promote the anti-tumor effects of anti-CTLA-4
